Test results: the supplement of paper PMC13380429

Legend:
Conditions in all cases: 72 h
Calu-3 [1] = test: drug sensitivity score (DSS) for viability; higher = more toxic; extreme values may be limits of the assay
Caco-2 [2] = test: as above
HepG2 [3] = test: as above
U2OS [4] = test: as above
Vero E6 [5] = test: as above
Calu-3 [6] = test: cell viability relative to DMSO; higher = less toxic
Caco-2 [7] = test: as above
HepG2 [8] = test: as above
U2OS [9] = test: as above
Vero E6 [10] = test: as above
Calu-3 [11] = test: relative viability EC50 (midpoint between 100% and the lowest measured viability); higher = less toxic
Caco-2 [12] = test: as above
HepG2 [13] = test: as above
U2OS [14] = test: as above
Vero E6 [15] = test: as above

Compound	drug sensitivity score (Calu-3 [1])	drug sensitivity score (Caco-2 [2])	drug sensitivity score (HepG2 [3])	drug sensitivity score (U2OS [4])	drug sensitivity score (Vero E6 [5])	cell viability (Calu-3 [6]; 1 nM) [%]	cell viability (Calu-3 [6]; 10 nM) [%]	cell viability (Calu-3 [6]; 100 nM) [%]	cell viability (Calu-3 [6]; 1000 nM) [%]	cell viability (Calu-3 [6]; 10000 nM) [%]	cell viability (Caco-2 [7]; 1 nM) [%]	cell viability (Caco-2 [7]; 10 nM) [%]	cell viability (Caco-2 [7]; 100 nM) [%]	cell viability (Caco-2 [7]; 1000 nM) [%]	cell viability (Caco-2 [7]; 10000 nM) [%]	cell viability (HepG2 [8]; 1 nM) [%]	cell viability (HepG2 [8]; 10 nM) [%]	cell viability (HepG2 [8]; 100 nM) [%]	cell viability (HepG2 [8]; 1000 nM) [%]	cell viability (HepG2 [8]; 10000 nM) [%]	cell viability (U2OS [9]; 1 nM) [%]	cell viability (U2OS [9]; 10 nM) [%]	cell viability (U2OS [9]; 100 nM) [%]	cell viability (U2OS [9]; 1000 nM) [%]	cell viability (U2OS [9]; 10000 nM) [%]	cell viability (Vero E6 [10]; 1 nM) [%]	cell viability (Vero E6 [10]; 10 nM) [%]	cell viability (Vero E6 [10]; 100 nM) [%]	cell viability (Vero E6 [10]; 1000 nM) [%]	cell viability (Vero E6 [10]; 10000 nM) [%]	relative viability EC50 (Calu-3 [11]) [µM]	relative viability EC50 (Caco-2 [12]) [µM]	relative viability EC50 (HepG2 [13]) [µM]	relative viability EC50 (U2OS [14]) [µM]	relative viability EC50 (Vero E6 [15]) [µM]
O=C(COP(=O)(O)O)[C@@H](O)[C@H](O)[C@H](O)COP(=O)(O)O [fosfructose]	0	0	0	0	0	101	101	99.9	98.8	97.2	107	118	91.9	94.7	93.5	108	83	73.1	99.1	95.4	97.9	106	106	105	99.3	97.6	98.1	102	102	94.7	> 10	> 10	> 10	> 10	> 10
NC(=O)c1ncn([C@@H]2O[C@H](CO)[C@@H](O)[C@H]2O)c1N [acadesine]	0	0	0	0	0	96.6	94.9	84.2	97.8	90.8	96.7	98.1	86.4	92.7	95.7	98.1	96.1	105	97.9	102	100	91.8	96.5	97.9	102	101	98	100	94.4	97.2	> 10	> 10	> 10	> 10	> 10
COc1cc(C[C@H](C)[C@H](C)Cc2ccc3c(c2)OCO3)ccc1O [macelignan]	0	0	3.3	0	0	99.3	102	102	101	103	87.3	102	93.9	96.6	87.3	98.4	103	92.1	81.1	86.3	98.5	99	94	101	91.5	100	106	98.9	95.4	101	> 10	> 10	> 10	> 10	> 10
O=P1(N(CCCl)CCCl)NCCCO1 (stereo unspecified) [cyclophosphamide]	–	0	0	0	0	–	–	–	–	–	100	100	95.6	86.7	98.6	91.9	98.9	91.5	99.8	105	102	102	101	95.5	99.2	97.6	99.8	99.4	98.2	94	–	> 10	> 10	> 10	> 10
CON [methoxyamine]	–	0	0	0	0	–	–	–	–	–	102	102	99.9	96.9	100	110	110	102	99.7	96.8	99.2	103	96.7	103	96.4	108	94.6	99.3	106	106	–	> 10	> 10	> 10	> 10
CNc1cc2[nH]c(=O)n(-c3ccc(NC(=O)NS(=O)(=O)c4ccc(Cl)s4)cc3)c(=O)c2cc1F [elinogrel]	–	0	0	0	0	–	–	–	–	–	95.7	103	97.2	98.3	101	100	91.4	89.7	94.1	99.8	95.6	101	100	103	104	94.6	95.2	95.2	95.3	100	–	> 10	> 10	> 10	> 10
O=C(O)CCCNC(=O)c1cccnc1 [pikamilone]	–	0	0	0	0	–	–	–	–	–	99.8	98.3	98.4	95.6	99.8	107	113	99.8	110	94.6	106	97.4	103	99.4	104	102	105	102	102	98.4	–	> 10	> 10	> 10	> 10
COc1ccc(C2CC(c3c(O)cc(C)oc3=O)=NCCS2)c(OC)c1 (stereo unspecified)	4.4	7.1	11.2	7.1	11.8	105	105	97.7	80.4	57	103	98.7	99.5	64.4	47.4	94.9	106	92.8	44.4	36.6	102	97	93.9	69.8	33.2	100	105	101	35.9	31	–	0.73	0.328	1.1	0.391
